The values that follow come from PMC12040169 (PLOS Biology, 2025).

This data set is described as follows: in vitro. Particulars: human, hela cells.

In the case of `CC1Cc2cc(-c3cc4ccccn4c3)ccc2N1S(C)(=O)=O` (stereo not drawn) [CBK285227], the viability at 28.5 h, 10 µM (% viability) was 90.3%.
The same measure, in the same setting: to `CCCC/C=C/c1cnc(N)c(Nc2ccc(OC)cc2C)n1` [CBK064090] belongs 101%.
On to `O=C(NCC(c1ccccc1)c1ccccc1)N1CCCCC1CO` (stereo not drawn) [CBK156186], for which, under “% viability”, the viability at 28.5 h, 10 µM was 93.5%.
For `CCn1ccnc1CN1CCCC(CCc2ccccc2F)C1` (stereo not drawn) [CBK307173], under “% viability”, the viability at 28.5 h, 10 µM was determined as 99.3%.
Consider `N=C1S/C(=C/c2ccc(-c3ccccc3C(=O)O)o2)C(=O)N1c1nccs1` [CBK077624], for which the viability at 28.5 h, 10 µM (% viability) came out at 93.9%.
Consider `CCCC(=O)N1C2CCC1c1cnc3cc(-c4ccco4)nn3c1C2` (stereo not drawn) [CBK284383], for which the viability at 28.5 h, 10 µM (% viability) was determined as 96.6%.
On to `OCC1CCCN1c1nccnc1-c1cccnc1` (stereo not drawn) [CBK089049], for which the viability at 28.5 h, 10 µM (% viability) was determined as 101%.
`CCN(C)C(=O)N1CCN(CCCC(c2ccc(F)cc2)c2ccc(F)cc2)CC1` [CBK024910C]: the viability at 28.5 h, 10 µM (% viability) was 90.6%.
`O=C(c1cnoc1-c1ccc([N+](=O)[O-])cc1)N1CCCC1` [CBK153846]: the viability at 28.5 h, 10 µM (% viability) amounted to 107%.
On the same count and under the same terms, to `O=C(CSc1ccc(F)cc1)Nc1cc(Cl)ccc1O` [CBK268685] belongs 87.5%.
For `Cc1cc(C)c2c(O)nc(SCC(=O)c3ccccc3)nc2n1` [CBK264336], where the note is “% viability”, the viability at 28.5 h, 10 µM was found to be 100%.
Turning to `COc1ccc(C(=O)Nc2ccc3[nH]ccc3c2)cc1Cl` [CBK159681], the viability at 28.5 h, 10 µM (% viability) was 94%.
Still for that read-out and setting: the result for `CCCc1ccc(S(=O)(=O)Nc2nc(-c3cccc([N+](=O)[O-])c3)cs2)cc1` [CBK000987] reads 88.1%; that for `Fc1ccccc1Oc1nnnn1-c1ccccc1` [CBK002526], 98.2%; that for `COc1cc(-c2ccc(Nc3cccnc3)nc2)cc(OC)c1OC` [CBK037704], 84.6%.
In the case of `COc1ccc2c(c1)cc(C(=O)NCCN1CCCCC1CO)n2C` (stereo not drawn) [CBK306621], the viability at 28.5 h, 10 µM (% viability) worked out at 114%.
Regarding `CCOC(=O)CCNC(=O)/C=C/c1ccc(C(C)C)cc1` [CBK149643], the viability at 28.5 h, 10 µM (% viability) is 102%.
On the same count and under the same terms, to `Cc1cc(NC(=O)CS(=O)(=O)c2cccc(C(F)(F)F)c2)on1` [CBK306015] belongs 85.5%; to `Cn1nnc2cc(C(=O)NCCN3CCCCC3CO)ccc21` (stereo not drawn) [CBK307268], 84.3%; to `Nc1nnc(SCCN2C(=O)c3ccccc3S2(=O)=O)s1` [CBK267688], 88.6%.
For `O=C(c1ccccc1)N1C[C@@H]2CCCCN(CC3CC3)[C@@H]2C1` [CBK285498], for the setting “% viability”, the viability at 28.5 h, 10 µM was determined as 102%.
With `Cc1ccc(Oc2c([N+](=O)[O-])c(C)nn2C)c(Br)c1` [CBK000283], the viability at 28.5 h, 10 µM (% viability) came out at 90.6%.
Consider `O=C(c1ccc(-n2cccn2)nc1)N1CCN(c2ccccc2O)CC1` [CBK297794], for which the viability at 28.5 h, 10 µM (% viability) amounted to 83.8%.
Still for that read-out and setting: to `CN1CCN(c2ccc(C(=O)O)cc2)CC1` [CBK264773] belongs 94.8%; to `Cc1ccccc1-c1ccccc1CC1(C(N)=O)CCN(C(=O)c2cccc(F)c2)CC1` [CBK285726], 94.2%.
In the case of `CCCCN1CCC2CN(CCCC(c3ccc(F)cc3)c3ccc(F)cc3)CCN2C1=O` (stereo not drawn) [CBK024880C], the viability at 28.5 h, 10 µM (% viability) was found to be 99.5%.
Consider `COC(=O)c1c(NC(=S)NCc2cccnc2)sc(C)c1C` [CBK267029], for which, under “% viability”, the viability at 28.5 h, 10 µM was 89.2%.
On to `O=C(CN1C(=O)COc2ccc(Cl)cc21)Nc1cccc(C(=O)O)c1` [CBK269667], for which the viability at 28.5 h, 10 µM (% viability) is 93.1%.
Turning to `COc1ccccc1CC(=O)N1CCCC(c2cc3ncccc3[nH]2)C1` (stereo not drawn) [CBK283417], under “% viability”, the viability at 28.5 h, 10 µM is 95.4%.
For the molecule `Cc1cccc(OCCn2c(CCNC=O)nc3ccccc32)c1C` [CBK269539], the viability at 28.5 h, 10 µM (% viability) is 104%.
`Cc1ccc2cc(COc3cccnc3[N+](=O)[O-])c(Cl)nc2c1C` [CBK297113]: the viability at 28.5 h, 10 µM (% viability) is 103%.
The same measure, in the same setting: to `COc1ccc(NC(=O)c2c(C)[nH]c(=O)[nH]c2=S)cc1OC` [CBK115517] belongs 90.4%; to `Cc1nn2cc(CNC(=O)C3Cc4ccccc4O3)nc2s1` (stereo not drawn) [CBK307498], 73.4%; to `COc1cccc(C(NC(=O)c2cc(CN3CCOCC3)c(C)o2)c2ccccc2)c1` (stereo not drawn) [CBK286279], 93.4%.
Turning to `Cc1ccc2nsnc2c1NC(=O)Cc1cccc2ccccc12` [CBK266279], the viability at 28.5 h, 10 µM (% viability) came out at 98.8%.
With `O=C(Cn1cnc2ccc([N+](=O)[O-])cc2c1=O)Nc1ccc(C(=O)O)cc1` [CBK297542], the viability at 28.5 h, 10 µM (% viability) stood at 85.5%.
For `O=C(NCc1ccco1)C1CCN(c2nccc(C(F)(F)F)n2)CC1` [CBK028778], the viability at 28.5 h, 10 µM (% viability) amounted to 105%.
Same read-out and setting: the result for `CCn1cc(C(=O)N2CCC(Oc3ccccc3C)(C(=O)O)CC2)cn1` [CBK306699] reads 118%.
On to `N#Cc1cccc(CSc2nnc(Nc3ccccc3)n2-c2ccccc2)c1` [CBK266040], for which, under “% viability”, the viability at 28.5 h, 10 µM came to 107%.
With `N#Cc1c(NC(=O)c2cc(S(=O)(=O)N3CCOCC3)cs2)sc2c1CCCC2` [CBK264532], the viability at 28.5 h, 10 µM (% viability) stood at 102%.
As for `O=C(Cc1ccc(Cl)c(Cl)c1)N1CCCC2(CCN(Cc3ccccc3)C2)C1` (stereo not drawn) [CBK136872], the viability at 28.5 h, 10 µM (% viability) turned out to be 91.9%.
Turning to `OC1(Cn2cnc3ccccc32)CCN(Cc2ccc(F)cc2)CC1` [CBK284661], the viability at 28.5 h, 10 µM (% viability) came out at 85.7%.
For the molecule `CN(C)CCCN1CCCC2(CCN(C(=O)c3cc(F)c(F)cc3F)C2)C1` (stereo not drawn) [CBK132005], the viability at 28.5 h, 10 µM (% viability) was found to be 96.5%.
Still for that read-out and setting: to `CC(C)Nc1cc(OCc2cccnc2)ncn1` [CBK115883] belongs 91.3%; to `CCc1nc2ccc(C(=O)NCCN(C)C)cn2c1N(CC)CC(=O)N(C)C` [CBK146762], 89.6%; to `c1ccc(COc2ccc(-n3cnnn3)cc2)nc1` [CBK288196], 83.5%.
Turning to `Cc1ccc(NC(=O)COc2ccc(/C=C\c3onc(C)c3[N+](=O)[O-])cc2)cc1` [CBK268928], the viability at 28.5 h, 10 µM (% viability) amounted to 88.2%.
Consider `O=C(Nc1ccccc1-n1ccnc1)c1ncoc1-c1ccc(F)cc1` [CBK282417], for which the viability at 28.5 h, 10 µM (% viability) was 94.1%.
For `Cc1nn(CCC#N)c(C)c1[C@@H]1C=C[C@@H](NC(=O)NC(C)C)C1` [CBK289172], the viability at 28.5 h, 10 µM (% viability) worked out at 89.2%.
Take `O=C1Nc2cc(Cl)ccc2C2=NCCCN12` [CBK284385]: the viability at 28.5 h, 10 µM (% viability) was found to be 81.5%.
With `CCCN(C(=O)OC(C)(C)C)C1CCc2[nH]c(=O)c(C#N)cc2C1` (stereo not drawn) [CBK023470], under “% viability”, the viability at 28.5 h, 10 µM is 99.7%.
For `CCNC(=O)C1(NC(=O)c2cn3ccccc3n2)CCCCC1` [CBK305240], the viability at 28.5 h, 10 µM (% viability) amounted to 102%.
In the case of `COc1ccc(CCC(C)N2CCN(c3ccc(F)cc3)CC2)cc1` (stereo not drawn) [CBK261922], the viability at 28.5 h, 10 µM (% viability) came to 103%.
`O=C1/C(=C/c2c(NCCc3ccccc3)nc3ccccn3c2=O)SC(=S)N1Cc1ccco1` [CBK264674]: the viability at 28.5 h, 10 µM (% viability) is 96.4%.
In the case of `O=C1NCCCNC(=O)C2(C/C=C/CCOc3ccccc31)CCN(C(=O)CN1CCCC1)CC2` [CBK292052], the viability at 28.5 h, 10 µM (% viability) came out at 101%.
Regarding `Cc1cc(C)c2c(OCC(=O)NC(C)C)nn(C)c2n1` [CBK306393], the viability at 28.5 h, 10 µM (% viability) amounted to 87.4%.
Same read-out and setting: the result for `COc1ccccc1-c1noc(CCCC(=O)Nc2cccc(C(F)(F)F)c2)n1` [CBK268794] reads 96.3%; that for `CC(OC(=O)N1CCN(c2ccccc2)CC1)c1ccccc1` (stereo not drawn) [CBK200243], 104%; that for `CCOC(=O)Cn1c(C)nc(C)cc1=O` [CBK012419], 103%.
On to `COc1cc(/C=N/O)ccc1Oc1ccc([N+](=O)[O-])cc1[N+](=O)[O-]` [CBK261651], for which, for the setting “% viability, bulk resorufin, single well”, the viability at 28.5 h, 10 µM worked out at 92.5%.
With `CCn1c(SCC(=O)Nc2ccc(OC)c(Cl)c2)nnc1-c1ccccc1O` [CBK268021], where the note is “% viability”, the viability at 28.5 h, 10 µM was 101%.
Take `Cc1cccc2cc(C#N)c(NCCCn3ccnc3)nc12` [CBK109369]: the viability at 28.5 h, 10 µM (% viability) turned out to be 77.9%.
As to `Nc1nnc(SCc2cccc3ccccc23)[nH]1` [CBK264830], the viability at 28.5 h, 10 µM (% viability) worked out at 103%.
For the molecule `CC(C)C(=O)N1CCCC(c2cc3cccnc3[nH]2)C1` (stereo not drawn) [CBK284994], the viability at 28.5 h, 10 µM (% viability) came to 96.4%.
As for `CC(=O)N1CCC2(CC1)CC(O)c1cc(C)c(C)cc1O2` (stereo not drawn) [CBK282826], the viability at 28.5 h, 10 µM (% viability) turned out to be 107%.
Still for that read-out and setting: the result for `Cc1ccccc1-c1ocnc1C(=O)NCc1ccco1` [CBK282408] reads 84.5%.
Consider `COc1ccc(-c2cc(C(=O)NC3CCCCC3C)c3ccccc3n2)cc1` (stereo not drawn) [CBK294459], for which the viability at 28.5 h, 10 µM (% viability) turned out to be 107%.
The same measure, in the same setting: to `Nc1ccc2ccc(-c3ccncc3)nc2n1` [CBK067622] belongs 82.8%; to `OC(COc1cccc2ccccc12)CN1CCN(C(c2ccccc2)c2ccccc2)CC1` (stereo not drawn) [CBK007591], 93.1%.
As to `CCOC(=O)c1csc(COc2ccccc2Cl)n1` [CBK057782], the viability at 28.5 h, 10 µM (% viability) came to 113%.
With `Cc1cc2c(s1)c1cnn(CC(=O)N3CCCCC3)c(=O)c1n2C` [CBK284187], the viability at 28.5 h, 10 µM (% viability) was 82.3%.
On the same count and under the same terms, to `Cc1ccc(S(=O)(=O)NCC23C=CC(O2)C2C(=O)N(Cc4ccccc4)C(=O)C23)cc1` (stereo not drawn) [CBK261170] belongs 107%; to `Oc1cc2cccnc2nc1-c1cccc(C(F)(F)F)c1` [CBK073704], 79%.
Still for that read-out and setting: to `Cc1cc(CN2CCN(S(=O)(=O)c3ccc(-c4ccccc4)cc3)CC2)cc(C)c1O` [CBK062747] belongs 115%; to `CSc1cccc(NC(=O)NCCN2CCNC2=O)c1` [CBK057191], 103%; to `COc1cccc(Cn2c(=O)c3sccc3n(CC(=O)NCc3ccc(C)cc3)c2=O)c1` [CBK300533], 80.8%.
Same read-out and setting: the result for `COCCn1cnnc1C(C)NC(=O)c1nc2ccccc2[nH]1` (stereo not drawn) [CBK307366] reads 101%; that for `N#C/C(=C/c1ccc(Sc2ccc(Cl)cc2)o1)c1ccc(C(=O)O)cc1` [CBK268996], 89.8%; that for `Cn1ccnc1C1CCN(C(=O)NCc2cccc(F)c2)CC1` [CBK304606], 91.3%.
For the molecule `CNC(=O)Oc1ccccc1/C=N/N(C)C` [CBK023194], the viability at 28.5 h, 10 µM was 97.5%.
For `COc1ccc(-c2noc(CSc3nc4sc(C)c(C)c4c(=O)n3-c3ccccc3)n2)cc1` [CBK268264], the viability at 28.5 h, 10 µM (% viability) turned out to be 100%.
